Test results from patent US10221426B2, “Constitutively active PYR/PYL receptor proteins for improving plant stress tolerance” (The Regents of the University of California, priority 2009, dated 2019).
pIC50: −log10 of the molar value.

Biological target: T1, HAB1 in the presence of PYR1 (Arabidopsis thaliana, UniProt O49686)
T1 construct: made in house; host or cells: E. coli BL21[DE3]pLysS
T1 sequence (O49686 1-191): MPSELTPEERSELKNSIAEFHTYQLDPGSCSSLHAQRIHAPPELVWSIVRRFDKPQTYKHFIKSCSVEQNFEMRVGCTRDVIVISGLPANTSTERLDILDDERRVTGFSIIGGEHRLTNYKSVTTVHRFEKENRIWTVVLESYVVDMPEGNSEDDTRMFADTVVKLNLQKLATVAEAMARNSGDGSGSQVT
T1 sequence (Q9CAJ0 23-511 partner): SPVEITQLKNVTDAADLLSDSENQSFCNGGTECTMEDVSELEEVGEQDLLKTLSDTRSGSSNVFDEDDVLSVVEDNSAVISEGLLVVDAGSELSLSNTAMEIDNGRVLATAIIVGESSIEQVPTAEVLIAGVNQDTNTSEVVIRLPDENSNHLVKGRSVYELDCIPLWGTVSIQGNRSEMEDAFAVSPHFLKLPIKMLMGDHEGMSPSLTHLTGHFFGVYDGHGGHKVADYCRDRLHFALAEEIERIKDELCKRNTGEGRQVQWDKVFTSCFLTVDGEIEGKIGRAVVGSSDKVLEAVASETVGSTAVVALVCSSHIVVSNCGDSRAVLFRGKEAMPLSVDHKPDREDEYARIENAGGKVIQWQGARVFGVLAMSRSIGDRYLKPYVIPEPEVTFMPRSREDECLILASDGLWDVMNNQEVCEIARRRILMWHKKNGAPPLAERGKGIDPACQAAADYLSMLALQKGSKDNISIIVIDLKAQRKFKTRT
Assay: PP2C phosphatase assay (pNPP), GST-HAB1 in the presence of PYR1
Assay type: biochemical
Details: 1 μM GST-HAB1, 1.5 μM 6×His-PYR1, 50 mM pNPP; read-out: IC50 of inhibition of HAB1 phosphatase activity in the presence of PYR1
Source text: Since ABI1 and relatives are negative regulators of the ABA signaling pathway, we hypothesized that the function of the ABA-promoted PYR1-PP2C interaction was to inhibit phosphatase activity and remove a negative input into the pathway, which would then promote signaling. To test this hypothesis, we examined the effects of (+)-ABA on PP2C enzyme kinetics using recombinant GST-HAB1, 6×His-PYR1 or 6×His-PYR1^P88S using the phosphatase substrate pNPP. The ORF of Arabidopsis HAB1 was amplified by PCR from a pUni clone obtained from the ABRC and cloned into pGex-2T to create a GST-HAB1 fusion protein. Both constructs were transformed into BL21[DE3]pLysS. For expression, cells harboring pGex-GST-HAB1 were grown overnight in 20 ml LB and then inoculated to 700 ml media containing 1 mM MnCl2 and continued incubation with shaking at RT for 8 hr. Protein expression was then induced by addition of IPTG to final concentration of 0.5 mM, and cells were cultured overnight at RT. […] Immediately after mixing, reactions were monitored for hydrolysis of pNPP at A405 t˜10 second intervals over 20 minutes using a Wallac plate reader. Reaction progressions were plotted, initial velocities calculated and converted to specific activities using a standard curve for 4-nitrophenol made in the same buffer system volumes/plate reader used for enzymatic reaction measurements. […]

How did the pIC50 turn out when `CC1=CC(=O)CC(C)(C)C1(O)/C=C/C(C)=C\C(=O)O` (single isomer, unassigned; (+)) [(+)-ABA] was run?
The pIC50 was 6.74.
